The results in this text go back to US20070191480A1, “Gycol Ether Miticides and Anti-Allergen Treatments” (priority 2004, published 2007).

Each structure is given as a SMILES string. Like-named read-outs stand apart in the source and are kept apart here.

Data set [1] in a line: Solubility in water at 20° C.
For a further data set, the system named is dust mites. Nature of the data set: Dust mite kill efficacy, submersion method. Particulars: for >50% kill in 30 min.: 8% or saturated solutions in water, dust mites; for 1% HC Solution: % kill at 30 min / 1% HC Solution: time to 100% kill: 1% HC solution with 1% Stepanol WAC; for 1% HC Solution: % kill at 30 min: None = no kill; for 1% HC with 7% DPnP Solution: % kill at 30 min / 1% HC with 7% DpnP at 9.5 pH: % kill at 30 min / 1% HC with 7% DPnP Solution: time to 100% kill / 1% HC with 7% DpnP at 9.5 pH: time to 100% kill: 1% Stepanol WAC; for 1% HC with 7% DpnP at 9.5 pH: % kill at 30 min / 1% HC with 7% DpnP at 9.5 pH: time to 100% kill: pH 9.5; for 8% Solution: time to 100% kill: 8% glycol ether/ester in water with 1% Stepanol WAC, mites immersed, maximum time period 30 minutes; for 1% HC with 7% DPnP Solution: time to 100% kill / 1% HC Solution: time to 100% kill / 1% HC with 7% DpnP at 9.5 pH: time to 100% kill: maximum 30 minutes; for 1% HC Solution: time to 100% kill: solution pH (6.30-7.26). Type of data set: in vivo. An excerpt: To test the efficacy of the cleaning composition containing glycol ether, glycol ether ester, and combinations thereof for their ability to kill dust mites, a submersion method was used. The dust mites were immersed in the following solutions with a 1% or 8% glycol ether, glycol ether ester or a combination thereof. In addition to the glycol ether and or glycol ether ester, the solution also contained about 1% Stepanol® WAC (sodium lauryl sulfate) surfactant and the remainder of the solution was water. The pH of the aqueous solution was maintained between about 5 to 10.
After the dust mites were immersed in the solution they were tested each minute to determine if they were still alive or not. To test if the mites were alive after treatment, they are viewed under a dissecting microscope and poked with a 26-guage needle to induce movement. […] Since sometimes dust mites may appear to-be dead after treatment and then recover a few days later, a treated population and a control sample were placed in a high humidity desiccators and poke tests were conducted over several days following the initial treatment to ensure that the initial reported kill rates were accurate.

A further data set in a line: Vapor pressure. On the procedure:
The preferred vapor pressure of the solvents is less than about 1 mm Hg at 20° C., and preferably the vapor pressure is less than 0.5 mm Hg at 20° C.

`COCCOCCO` [Diethylene glycol methyl ether]: the “Solubility in water at 20° C.” value in data set [1] is given as 100%. For the same compound, the “>50% kill in 30 min.” value with dust mites is “no”. Besides, the “Vapor Pressure (mm Hg)” value in “Vapor pressure” (at 20° C.) was determined as 0.2 mm Hg.

For `COCC(C)O` (stereo not shown) [Propylene glycol methyl ether], in data set [1], the “Solubility in water at 20° C.” value amounted to 100%. In addition, in the data set on dust mites, the “>50% kill in 30 min.” value is “No”. The “Vapor Pressure (mm Hg)” value in “Vapor pressure” (at 20° C.) is recorded as 8.1 mm Hg.

On to `CCCCOC(C)COC(C)COC(C)CO` (stereo not shown) [Dowanol TPnB, Tripropylene glycol n-butyl ether], for which, in the data set with dust mites, the “1% HC Solution: % kill at 30 min” value was “None”, the “1% HC with 7% DPnP Solution: % kill at 30 min” value is 90% kill, the “1% HC with 7% DpnP at 9.5 pH: % kill at 30 min” value was “No kill” and the “8% Solution: time to 100% kill” value was found to be 20 min. The “>50% kill in 30 min.” value in the data set with dust mites is “Yes”. Further, the “Vapor Pressure (mm Hg)” value in “Vapor pressure” (at 20° C.) was under 0.01 mm Hg.

As for `CCCCOCCOCCO` [Diethylene glycol n-butyl ether], in data set [1], the “Solubility in water at 20° C.” value came to 100%. In the data set on dust mites, the “>50% kill in 30 min.” value is “No”. In addition, in “Vapor pressure” (at 20° C.), the “Vapor Pressure (mm Hg)” value stood at 0.02 mm Hg.

Take `OCCOc1ccccc1` [Dowanol Eph, ethylene glycol phenyl ether]: in the data set on dust mites, the “1% HC Solution: % kill at 30 min” value worked out at 95% kill, the “1% HC with 7% DPnP Solution: % kill at 30 min” value was 95% kill, the “1% HC with 7% DpnP at 9.5 pH: % kill at 30 min” value is listed as 50% kill and the “8% Solution: time to 100% kill” value was found to be 17 min.

As for `COCC(C)OC(C)=O` (stereo not shown) [Propylene glycol methyl ether acetate], in the data set on dust mites, the “>50% kill in 30 min.” value was “No”. Further, the “Vapor Pressure (mm Hg)” value in “Vapor pressure” worked out at 3.8 mm Hg.

With `CCCOCCO` [Ethylene glycol n-propyl ether], in the data set on dust mites, the “>50% kill in 30 min.” value was “No”. In “Vapor pressure”, the “Vapor Pressure (mm Hg)” value is given as 1.3 mm Hg.

On to `CCCCOCCO` [Ethylene glycol n-butyl ether], for which, in the data set with dust mites, the “>50% kill in 30 min.” value is reported as “No”. The “Vapor Pressure (mm Hg)” value in the data set “Vapor pressure” (at 20° C.) is on record as 0.6 mm Hg.

Turning to `CCCCOCC(C)O` (stereo not shown) [Dowanol PnB, propylene glycol n-butyl ether], in the data set with dust mites, the “1% HC Solution: % kill at 30 min” value was “None”, the “1% HC with 7% DPnP Solution: time to 100% kill” value is listed as 29 min, the “1% HC with 7% DpnP at 9.5 pH: % kill at 30 min” value was determined as 60% kill and the “8% Solution: time to 100% kill” value is listed as 17 min. Also, the “>50% kill in 30 min.” value in the data set with dust mites is on record as “Yes”. In the data set “Vapor pressure”, the “Vapor Pressure (mm Hg)” value is 0.62 mm Hg.

Consider `CC(O)COc1ccccc1` (stereo not shown) [Dowanol PPh, propylene glycol phenol ether], for which, in the data set on dust mites, the “1% HC Solution: time to 100% kill” value is listed as 22 min, the “1% HC with 7% DPnP Solution: time to 100% kill” value came out at 30 min, the “1% HC with 7% DpnP at 9.5 pH: time to 100% kill” value was determined as 26 min and the “8% Solution: time to 100% kill” value is on record as 7 min.

For the compound `CCCCOCCOC(C)=O` [Butyl Cellosolve Acetate, ethylene glycol n-butyl ether acetate], the “Solubility in water at 20° C.” value in data set [1] amounted to 1%. Further, in the data set on dust mites, the “1% HC Solution: time to 100% kill” value was 22 min, the “1% HC with 7% DPnP Solution: time to 100% kill” value stood at 18 min, the “1% HC with 7% DpnP at 9.5 pH: time to 100% kill” value came out at 16 min and the “8% Solution: time to 100% kill” value came to 4 min. For the same compound, the “>50% kill in 30 min.” value in the data set with dust mites is given as “Yes”. For the same compound, the “Vapor Pressure (mm Hg)” value in the data set “Vapor pressure” (at 20° C.) is 0.29 mm Hg.

On to `CCCOC(C)COC(C)CO` (stereo not shown) [Dipropylene glycol n-propyl ether], for which, in data set [1], the “Solubility in water at 20° C.” value worked out at 18%. The “>50% kill in 30 min.” value with dust mites is given as “No”. Besides, the “Vapor Pressure (mm Hg)” value in the data set “Vapor pressure” (at 20° C.) worked out at 0.05 mm Hg.

Regarding `CCCCCCOCCOCCO` [Hexyl Carbitol, diethylene glycol monohexyl ether], in the data set with dust mites, the “1% HC Solution: % kill at 30 min” value is “None”, the “1% HC with 7% DPnP Solution: time to 100% kill” value worked out at 26 min, the “1% HC with 7% DpnP at 9.5 pH: % kill at 30 min” value is “No kill” and the “8% Solution: time to 100% kill” value came to 25 min.

As for `CCOCCOCCO` [Diethylene glycol ethyl ether], in the data set with dust mites, the “>50% kill in 30 min.” value is on record as “No”. The “Vapor Pressure (mm Hg)” value in “Vapor pressure” was 0.12 mm Hg.

For `CCCCCCOCCO` [Hexyl Cellosolve, ethylene glycol monohexyl ether], in the data set on dust mites, the “1% HC Solution: time to 100% kill” value is on record as 15 min, the “1% HC with 7% DPnP Solution: time to 100% kill” value was 14 min, the “1% HC with 7% DpnP at 9.5 pH: time to 100% kill” value stood at 26 min and the “8% Solution: time to 100% kill” value came out at 11 min. In addition, the “>50% kill in 30 min.” value in the data set on dust mites is listed as “Yes”. Moreover, the “Vapor Pressure (mm Hg)” value in the data set “Vapor pressure” is under 1.0 mm Hg.

Consider `CCCOCC(C)O` (stereo not shown) [Propylene glycol n-propyl ether], for which the “Solubility in water at 20° C.” value in data set [1] was determined as 100%. Also, in the data set with dust mites, the “>50% kill in 30 min.” value was “No”. In addition, the “Vapor Pressure (mm Hg)” value in “Vapor pressure” (at 20° C.) is recorded as 1.8 mm Hg.

For `COC(C)COC(C)COC(C)=O` (stereo not shown) [Dipropylene glycol methyl ether acetate], the “>50% kill in 30 min.” value with dust mites is “Yes”. Also, the “Vapor Pressure (mm Hg)” value in the data set “Vapor pressure” is 0.05 mm Hg.

With `CCCCOCCOCCOC(C)=O` [Butyl Carbitol Acetate, diethylene glycol n-butyl ether acetate], in the data set with dust mites, the “1% HC Solution: % kill at 30 min” value amounted to 50% kill, the “1% HC with 7% DPnP Solution: % kill at 30 min” value is 90% kill, the “1% HC with 7% DpnP at 9.5 pH: % kill at 30 min” value was found to be 80% kill and the “8% Solution: time to 100% kill” value is reported as 20 min. Also, the “>50% kill in 30 min.” value with dust mites was “Yes”. Besides, the “Vapor Pressure (mm Hg)” value in the data set “Vapor pressure” is 0.04 mm Hg.

As to `COC(C)COC(C)CO` (stereo not shown) [Dipropylene glycol methyl ether], the “>50% kill in 30 min.” value with dust mites was “No”. Further, the “Vapor Pressure (mm Hg)” value in the data set “Vapor pressure” is given as 0.17 mm Hg.
